In paper PMC10987619, “Identification and structural characterization of small molecule inhibitors of PINK1” (Scientific Reports, 2024):

How the values were obtained:
TcPINK1 [1] = target: T1, TcPINK1 (Tribolium castaneum, UniProt D6WMX4); assay: In vitro ubiquitin kinase assay with tetraubiquitin (Ub4), pUb immunoblot; assay type: biochemical; conditions: 100 µM compound; for Inhibition of Ub4 phosphorylation (kinase activity of TcPINK1): 100 µM ATP, 5 min, 30 °C
T1 construct: GST (N, cleaved yes); made in house; host or cells: E. coli
T1 sequence (D6WMX4 121-570 limits assumed): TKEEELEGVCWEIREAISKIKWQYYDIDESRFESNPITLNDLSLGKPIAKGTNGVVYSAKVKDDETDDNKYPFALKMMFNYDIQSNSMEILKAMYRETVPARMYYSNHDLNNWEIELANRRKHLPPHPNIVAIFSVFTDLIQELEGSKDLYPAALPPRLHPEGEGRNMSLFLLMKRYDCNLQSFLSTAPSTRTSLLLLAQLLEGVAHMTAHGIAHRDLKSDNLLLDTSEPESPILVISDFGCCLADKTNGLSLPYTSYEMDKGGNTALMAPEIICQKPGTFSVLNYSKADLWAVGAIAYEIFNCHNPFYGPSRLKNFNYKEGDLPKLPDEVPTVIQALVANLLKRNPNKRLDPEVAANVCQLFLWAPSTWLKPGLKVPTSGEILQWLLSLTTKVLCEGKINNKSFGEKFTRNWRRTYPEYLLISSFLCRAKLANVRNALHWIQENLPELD
Method: Inhibitors were purchased from different sources via Cedarlane Laboratories (catalog # in parenthesis). […] Olaparib was sent by mistake by Adooq Bioscience under cat #P505-15 and identified by LC–MS/MS (MS^1: m/z 435.183; MS^2: m/z 367.157, 281.072). MTK458 was donated by Mitokinin. The racemic PRT-core was custom synthesised by ChemSpace (CSCS02808122161). Kinase activity assays were performed by mixing 5 nM of purified TcPINK1 with 100 µM ATP, 100 µM small molecules from 10 mM stock in DMSO, 200 µM MgCl2 in kinase buffer (final 1% DMSO). The reactions were left in a 30 °C incubator for 5 min for TcPINK1. The reactions were stopped with the addition of Laemmli buffer (2% SDS, 0.1% bromophenol blue (SigmaAldrich), 10% glycerol, 100 mM DTT) final concentration 1X. The entire reaction was loaded onto a 12.5% Tris-Tricine gel (1 M Tris–HCl pH 8.45, 12.5% acrylamide, 0.1% SDS, 0.1% APS, 0.04% TEMED). Protein from a 12.5% polyacrylamide gel were transferred onto an immuno-blot polyvinylidene fluoride (PVDF) membrane (Bio-rad). The membranes were stained with 1% Ponceau and imaged using the ImageQuant LAS 500. The membrane was washed with distilled water and then blocked in 5% BSA diluted in tris buffered saline with 0.1% Tween (TBS-T) for 1 h. The membrane was briefly rinsed and left to incubate with primary antibody anti-pS65-Ub (E2J6T; rabbit mAb, CST, 62802) at a 1:10,000 dilution in TBS-T for 2 h. The membrane was further rinsed three times for 10 min with TBS-T before incubating it with a 1:2000 dilution of secondary antibody, anti-rabbit horseradish peroxidase (HRP)-conjugated antibodies (CST, 7074), in TBS-T. The membrane was rinsed three times for 10 min in TBS followed by the addition of 1 mL ECL solution (BioRad) to the membrane and visualized on the ImageQuant LAS 500. Densitometry was performed using the Fiji software.

TcPINK1 [2] = target: T2, TcPINK1 (Tribolium castaneum, UniProt D6WMX4); assay: Kinase Glo luminescence assay (ATP hydrolysis) IC50 determination; assay type: biochemical; conditions: 1 µM unphosphorylated TcPINK1, 10 µM ATP, 5 min, 30 °C
T2 construct: TcPINK1 (121–570) ampicillin-resistant plasmids were co-expressed in BL21 DE3 E. coli with lambda phosphatase; GST (N, cleaved yes); made in house; host or cells: E. coli BL21 DE3
Method: The Kinase Glo Max (cat #V6071) kit assay was used to measure the ATP consumed in the kinase assays. Unphosphorylated 1 µM TcPINK1 was incubated with 10 µM ATP for 5 min at 30 °C in kinase buffer ([…]). […] The kinase buffer consists of 50 mM Tris–HCl pH 7.5, 300 mM NaCl, 1 mM DTT. 100 µL of kinase at 1 µM was added to 100 µL kinase buffer with inhibitor and left in a 30 °C incubator. After the 5-min mark, 200 µL kinase glo was added to stop the reaction. 100 µL of the sample was then pipetted into 3 wells of an opaque white 96-well plate. The luminescence was measured using the Orion II Microplate Luminometer and obtained using the Simplicity 4.2 program. […] The ATP concentration remaining in the reaction was calculated from the linear equation of the ATP standard curve. This number was then divided by the amount of ATP initially present and multiplied by 100 to obtain the percent inhibition. The values were normalized according to the baseline (no inhibitor). The points plotted on a non-linear regression graph in GraphPad Prism 7. The IC50 value and standard deviation were determined in GraphPad.

human PINK1 (HsPINK1) = target: T3, human PINK1 (HsPINK1) (Homo sapiens, UniProt Q9BXM7); assay: In organello Ub4 kinase assay with mitochondria isolated from CCCP-treated HeLa cells; assay type: biochemical; conditions: 100 µM compound, 0.1 mM ATP, 15 min, 30 °C
T3 construct: host or cells: HeLa (mitochondria isolated after CCCP)
T3 sequence (Q9BXM7 78-581): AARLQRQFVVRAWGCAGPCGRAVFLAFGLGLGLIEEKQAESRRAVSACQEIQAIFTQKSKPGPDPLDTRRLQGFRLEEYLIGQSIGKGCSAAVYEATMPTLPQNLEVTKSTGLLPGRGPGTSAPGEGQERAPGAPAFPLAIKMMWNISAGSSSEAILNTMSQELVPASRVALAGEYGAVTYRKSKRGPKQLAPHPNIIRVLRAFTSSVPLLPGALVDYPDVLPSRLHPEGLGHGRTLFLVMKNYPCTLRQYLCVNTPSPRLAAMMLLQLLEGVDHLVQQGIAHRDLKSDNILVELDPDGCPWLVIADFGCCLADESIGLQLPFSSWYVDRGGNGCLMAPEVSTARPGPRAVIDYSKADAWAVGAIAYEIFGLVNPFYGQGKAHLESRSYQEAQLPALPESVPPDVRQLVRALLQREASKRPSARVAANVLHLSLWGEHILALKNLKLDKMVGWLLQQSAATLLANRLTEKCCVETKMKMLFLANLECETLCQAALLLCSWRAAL
Method: Wild type (WT) HeLa cells (ATCC #CCL-2) were cultured in DMEM medium supplemented with 10% fetal bovine serum (FBS) at 37 °C and 5% CO2 in a humidified atmosphere. Cells were then treated with 20 µM CCCP for 3 h to induce the accumulation of PINK1. Cells were then washed twice in ice-cold mitochondrial isolation buffer (MIB: 20 mM HEPES, 70 mM sucrose, 220 mM mannitol, pH 7.4, 1 mM EDTA, Complete protease inhibitors), resuspended in MIB and lysed using nitrogen cavitation for 5 min at 500 psi. Cell debris were removed by centrifugation at 500 g for 5 min, and mitochondria were pelleted by centrifugation at 20,000g for 20 min. 7.5 µg of mitochondria was incubated with 3.75 µg Ub4, 5 mM MgCl2, 0.1 mM ATP and 100 µM of each inhibitor for 15 min at 30 °C. The reaction was quenched with Laemlli buffer and loaded on a gel for immunoblotting as described above. The following antibodies were used: anti-pS65-Ub (E2J6T; rabbit mAb, CST, 62802), anti-PINK1 (D8G3; rabbit IgG mAb; CST, 6946), anti-cytochrome C (136F3, recombinant rabbit mAb, CST, 4280), and HRP-conjugated secondary anti-rabbit (CST, 7074).

MLK1 = conditions: cited from earlier work
FGR = conditions: cited from earlier work
TcPINK1 [3] = target: T4, TcPINK1 (Tribolium castaneum, UniProt D6WMX4); assay: Autophosphorylation (transphosphorylation) assay by intact LC-MS; assay type: biochemical; conditions: 100 µM compound, 5 µM TcPINK1, 1 mM ATP, 30 °C
T4 sequence (D6WMX4 128-570 limits assumed): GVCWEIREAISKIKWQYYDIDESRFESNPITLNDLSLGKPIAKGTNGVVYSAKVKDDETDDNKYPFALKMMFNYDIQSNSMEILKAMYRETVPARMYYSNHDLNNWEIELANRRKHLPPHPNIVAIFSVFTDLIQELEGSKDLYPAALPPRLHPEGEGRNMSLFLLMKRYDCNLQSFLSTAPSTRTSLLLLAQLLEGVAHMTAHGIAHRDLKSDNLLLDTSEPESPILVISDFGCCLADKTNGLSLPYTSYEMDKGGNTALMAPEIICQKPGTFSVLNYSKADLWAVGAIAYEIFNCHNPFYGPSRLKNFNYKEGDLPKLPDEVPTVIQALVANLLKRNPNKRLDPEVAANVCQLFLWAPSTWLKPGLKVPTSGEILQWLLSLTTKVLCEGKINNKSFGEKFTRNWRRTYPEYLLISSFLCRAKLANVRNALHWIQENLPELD
Method: Intact protein mass spectrometry was used to monitor transphosphorylation of TcPINK1-D337N by ^15N-TcPINK1-WT, as described previously. ^15N-TcPINK1 at 5 μM was combined with 5 μM TcPINK1-D337N, 100 μM compound of interest, 1 mM ATP, 2 mM MgSO4 in 300 mM NaCl, 50 mM Tris–HCl pH 8, 2 mM DTT with 2% DMSO at 30 °C for transphosphorylation reactions with timepoints of 0 s, 30 s, 60 s, and 120 s. Timepoint reactions were stopped by addition of 0.05% TFA and 2% acetonitrile (final concentrations). Reactions in 20 μL were injected on a Dionex C4 Acclaim 1.0/15 mm column followed by a 10 min 4–50% gradient of ACN in 0.1% formic acid with a flow rate of 40 μL/min. The eluate was analyzed on a Bruker Impact II Q-TOF mass spectrometer equipped with an Apollo II ion funnel ESI source. The multiply charged ions were deconvoluted at 10,000 resolution using the maximum entropy method. The signal intensity of the nonphosphorylated and phosphorylated TcPINK1-D337N peaks were estimated using the DataAnalysis software integration tool and used to calculate the fraction phosphorylated.

[4] = target: T5, endogenous PINK1 in dopaminergic (DA) neurons (Homo sapiens, UniProt Q9BXM7); assay: Assay with dopaminergic neurons (CCCP, immunoblot); assay type: cell-based; conditions: 48 h compound then 20 µM CCCP 2 h
T5 construct: host or cells: ReN VM cells differentiated to dopamine neurons
T5 sequence (Q9BXM7 78-581): as the sequence (Q9BXM7 78-581) above

GST-TcPINK1 = target: T6, GST-TcPINK1 (Tribolium castaneum, UniProt D6WMX4); assay: In vitro ubiquitin kinase assay with monoubiquitin, Phos-tag gel; assay type: biochemical; conditions: 5 µM GST-TcPINK1, 30 µM ubiquitin, 1 mM ATP, 37 °C
T6 construct: made in house; host or cells: E. coli
T6 sequence (D6WMX4 with tags, fused parts or gaps limits assumed): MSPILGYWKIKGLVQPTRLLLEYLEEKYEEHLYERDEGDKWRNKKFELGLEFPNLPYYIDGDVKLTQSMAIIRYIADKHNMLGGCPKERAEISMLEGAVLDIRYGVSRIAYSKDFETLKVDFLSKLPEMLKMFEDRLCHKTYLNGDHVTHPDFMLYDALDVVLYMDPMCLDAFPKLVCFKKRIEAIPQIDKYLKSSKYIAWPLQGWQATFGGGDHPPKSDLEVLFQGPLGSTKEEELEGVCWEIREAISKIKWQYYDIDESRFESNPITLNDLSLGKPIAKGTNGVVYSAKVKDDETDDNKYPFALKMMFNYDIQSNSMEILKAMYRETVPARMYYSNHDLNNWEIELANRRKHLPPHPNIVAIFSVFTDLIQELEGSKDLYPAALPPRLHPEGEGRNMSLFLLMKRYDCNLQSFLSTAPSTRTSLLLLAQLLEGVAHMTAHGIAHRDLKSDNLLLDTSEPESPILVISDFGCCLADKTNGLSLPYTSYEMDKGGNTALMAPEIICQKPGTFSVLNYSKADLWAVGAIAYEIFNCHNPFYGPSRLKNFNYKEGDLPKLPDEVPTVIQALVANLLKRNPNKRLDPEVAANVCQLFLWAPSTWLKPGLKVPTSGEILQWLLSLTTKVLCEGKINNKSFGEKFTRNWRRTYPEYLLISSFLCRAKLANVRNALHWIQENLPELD
Method: (a) Thermal shift assay screen of kinase inhibitors against Tribolium castaneum PINK1 (TcPINK1) with melting temperature increase of 1.5 °C and above. Error bars indicate standard error of ΔTm estimation from melting curves (n = 1). (b) In vitro ubiquitin kinase assays with TcPINK1 and tetraubiquitin (Ub4). Reactions were analyzed by immunoblotting against phospho-ubiquitin (pUb). […] The ponceau staining of the above gel is shown as loading control. (c) In vitro ubiquitin kinase assays with 5 μM GST-TcPINK1 and 30 μM ubiquitin, as well as 1 mM ATP at 37 °C (n = 1). Reactions were analyzed using a phos-tag gel and stained by Coomassie blue. (d) Chemical structures of identified PINK1 inhibitors.

[5] = target: T7, human PINK1 (PINK1-3HA) in HeLa S3 cells (Homo sapiens, UniProt Q9BXM7); assay: HeLa S3 cells IC50 determination (pUb immunoblot after CCCP); assay type: cell-based; conditions: HeLa S3 PINK1-3HA, CCCP 4 h
T7 construct: expressed in transfected cells; host or cells: HeLa S3
T7 sequence (Q9BXM7 78-581): as the sequence (Q9BXM7 78-581) above

[6] = target: T8, TcPINK1 121-570 (TcPINK1-4arom) (Tribolium castaneum, UniProt D6WMX4, F401A/W131A/W142A/Y225A); assay: Isothermal titration calorimetry; assay type: binding; conditions: AMP-PNP (syringe) into TcPINK1 (cell), 20 °C, one-site model
T8 construct: GST (N, cleaved yes); made in house; host or cells: E. coli BL21 DE3
T8 sequence (D6WMX4 121-570 W131A/W142A/Y225A/F401A): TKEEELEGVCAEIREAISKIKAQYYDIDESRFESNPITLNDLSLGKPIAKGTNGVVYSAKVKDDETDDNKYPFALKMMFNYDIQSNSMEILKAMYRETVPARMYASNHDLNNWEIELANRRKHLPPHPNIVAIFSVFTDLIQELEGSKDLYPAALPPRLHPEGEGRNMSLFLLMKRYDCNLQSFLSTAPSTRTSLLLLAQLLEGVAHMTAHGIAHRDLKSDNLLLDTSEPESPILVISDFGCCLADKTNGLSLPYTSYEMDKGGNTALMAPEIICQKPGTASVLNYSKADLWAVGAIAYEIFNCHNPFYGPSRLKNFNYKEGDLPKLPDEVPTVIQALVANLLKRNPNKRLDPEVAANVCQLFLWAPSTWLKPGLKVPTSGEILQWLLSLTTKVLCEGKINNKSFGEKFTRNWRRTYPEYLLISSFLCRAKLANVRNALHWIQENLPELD
Method: The isothermal titration calorimetry (ITC) assay was performed using the Microcal ITC 200-1 instrument. […] Experiment involved 29 injections of AMP-PNP at 1.5 mM into a sample cell containing 350 μL of 100 µM TcPINK1-4arom at 20 °C. Data was fitted to a one-site model and background was subtracted using the Origin v7 software.

[7] = target: FMS-like tyrosine kinase 3 (FLTK3); conditions: read-out: Inhibition of FLTK3; cited from earlier work

Row | SMILES | Inhibition of Ub4 phosphorylation (kinase activity of TcPINK1) (TcPINK1 [1]) | IC50 (TcPINK1 [2]) [µM] | Inhibition of human PINK1 Ub4 phosphorylation in organello (human PINK1 (HsPINK1)) | other results
1 | Cc1cccc(Nc2nc(N[C@@H]3CCCC[C@@H]3N)ncc2C(N)=O)c1 [PRT060318] | inhibit the kinase activity of TcPINK1 | 2.5 | most potent inhibitors of human PINK1 kinase activity | –
2 | NC(=O)c1cnc(N[C@@H]2CCCC[C@@H]2N)nc1Nc1cccc(-n2nccn2)c1 [PRT062607] | inhibits Ub4 phosphorylation most strongly | – | most potent inhibitors of human PINK1 kinase activity | IC50 (MLK1): […]; IC50 (FGR): 0.081 µM; TcPINK1 autophosphorylation (TcPINK1 [3]): inhibits TcPINK1 autophosphorylation; Mfn2 ubiquitination [4]: inhibition of Mfn2 ubiquitination; Potential-dependent cleavage of Opa1 to its short isoform [4]: not affected; pUb signal [4]: reduction of the pUb signal in a dose-dependent manner; Inhibition of monoubiquitin phosphorylation (GST-TcPINK1): inhibits TcPINK1; PINK1 levels (HA blot) [5]: not substantially affected
3 | Nc1ncnc2c1ncn2[C@@H]1O[C@H](COP(=O)(O)OP(=O)(O)NP(=O)(O)O)[C@@H](O)[C@H]1O [AMP-PNP] | – | – | – | Kd [6]: 96 µM
4 | CNCc1ccc(-c2cc(-c3nc(-c4ccc(S(=O)(=O)C(C)C)cc4)cnc3N)on2)cc1 [VE822] | – | – | does not significantly impact HsPINK1 | TcPINK1 activity compared to control (TcPINK1 [1]; Ub4 substrate): 8%
5 | Nc1nc(Nc2ccc(S(N)(=O)=O)cc2)nn1C(=O)c1c(F)cccc1F [JNJ-7706621] | – | 27.6 ± 1.1 | – | –
6 | NC(=O)c1cnc(N[C@@H]2CCCC[C@@H]2N)nc1Nc1ccccc1 (racemic) [PRT-core] | inhibit the kinase activity of TcPINK1 | – | – | –
7 | Cn1cc(-c2nc(N[C@@H]3CCCC[C@@H]3N)c(F)c3c2C(=O)NC3)cn1 [TAK-659] | inhibit the kinase activity of TcPINK1 | 6.4 ± 1 | – | IC50 [7]: 0.005 µM
8 | Cc1nc(N)sc1-c1ccnc(Nc2ccc(N3CCOCC3)cc2)n1 [CYC116] | – | 65.4 ± 1.1 | – | –
9 | FC(F)(F)c1cc2c(N[C@@H]3CCCc4ccccc43)ncnc2[nH]1 [MTK458] | – | – | does not significantly affect Ub4 phosphorylation | –
